Measurements: US20070031493A1, “Pharmaceutical compositions” (priority 1996, published 2007)

Legend:
Format in all cases: physicochemical
[1] = Transport over a diffusion controlling polymeric membrane, two-compartment cell; conditions: pH 6.8, +37° C., steady state, FIG. 4
Description: The release rate was studied at different initial concentrations of the active drug. The solutions (pH 6.8) in the chambers were well stirred and thermostated at +37° C. From the cumulative amount released versus time, the release rates (amount released/time) were determined as the slopes of the linear parts of the curves obtained at steady state. No accumulation in the membrane was found of any of the drugs. The results are presented in FIG. 4 as the release rates versus the concentrations used in the experiments.

[2] = Drug release from eroding paraffin matrix tablet and immediate release hard gelatin capsule, USP II apparatus; conditions: 20 mg drug, pH 6.8, +37° C., paddle 75 rpm, FIG. 3
Description: (§1) In the following Examples 1 to 3, drug release from various types of tablets was determined in pH 6.8, +37° C., by use of an USP II apparatus at a paddle stirring rate of 75 rpm. All tablet formulations were manufactured by conventional techniques and, for each example, in an identical manner except for the drug constituent.

[3] = Drug release and tablet erosion, eroding polyethyleneoxide (PEO) matrix tablet, USP II apparatus; conditions: eroding matrix of PEO 8,000,000, 10 mg drug; pH 6.8, +37° C., paddle 75 rpm; FIG. 1
Description: as §1, with “constituent. […] Tablet erosion was determined by weighing after removal of the tablets from the dissolution apparatus and drying to constant weight.” for “constituent.”

[4] = Drug release from non-eroding high molecular weight xanthane matrix tablet, USP II apparatus; conditions: non-eroding matrix of xanthane (195 mg), 5 mg drug; pH 6.8, +37° C., paddle 75 rpm; FIG. 2
Description: as §1

Water solubility = experiment: Water solubility

| release rate over membrane (comparison) [1] | drug release from sustained release tablet (comparison) [2] | drug release compared with tablet erosion [3] | drug release from sustained release tablet (comparison) [3] | water solubility (Water solubility) [mg/mL] | solubility (Water solubility; water) [mg/mL] | SMILES | release rate over membrane versus concentration in donor chamber ([1]; different initial concentrations) | drug release from sustained release tablet (comparison) [4] |
| --- | --- | --- | --- | --- | --- | --- | --- | --- |
| much slower compared to diclofenac | slower than the release of diclofenac | almost identical | slower than the release of methylparaben |  |  | CC(C)n1c(/C=C/[C@@H](O)C[C@@H](O)CC(=O)O)c(-c2ccc(F)cc2)c2ccccc21 (relative stereo) [fluvastatin, R*,S*-(E)-(±)-7-[3-(4-fluorophenyl)-1-(1-methyl-ethyl)-1H-indol-2-yl]-3,5-dihydroxy-6-heptenoic acid] | independent of the concentration of fluvastatin in the donor compartment | slower than the release of both diclofenac and methylparaben |
|  |  |  |  | > 50 | > 50 | CC(C)n1c(/C=C/C(O)CC(O)CC(=O)O)c(-c2ccc(F)cc2)c2ccccc21 (stereo not drawn) [fluvastatin sodium] |  |  |
|  |  | faster than the tablet erosion |  |  |  | COC(=O)c1ccc(O)cc1 [methylparaben, methyl p-hydroxybenzoate] |  |  |
